# Test results: patent publication US9885044B2, “Polynucleotides and methods for inhibiting cancer cells” (Chang Gung Memorial Hospital, Linkou, priority 2015, dated 2018)
# What was measured:
# [1] = test system: Puf-A; test: Effect of small molecules blocking downstream effectors of Kras pathway on Puf-A expression (Western blot); type: cell-based; settings: H460 and HCT116 cancer cells
# Description: FIG. 3C is a series of bar graphs showing Puf-A promoter activity in Kras^G12D or c-Myc transfected cells, determined by dual-luciferase reporter assay. FIG. 3D illustrates the binding of c-Myc protein to exon 1 of Puf-A locus in H1299 and HCT116 cells. […] FIG. 3F is an assembly of the Western blot images illustrating the effect of Raf inhibitor (Raf (i)), MEK1 inhibitor (PD98059) and MEK1/2 inhibitor (U0126) on the expression of Puf-A, phosphorylated ERK1/2, total ERK1/2 and β-actin in H460 (Kras ^Q61H) and HCT116 (Kras^G13D) cancer cells.
# The effect of various small molecules (such as Raf(i), PD98059 and UO126), which block the downstream effectors of Kras pathway (such as Rafs, MEK1 and MEK2), was assessed in H460 and HCT116 cancer cells.
# [2] = test system: Puf-A RNA; test: Puf-A knockdown by shRNA lentivirus vectors, RT-PCR and Q-PCR; type: cell-based, human; settings: for knockdown efficiency on Puf-A expression compared to control shRNA: HCT116 and H1299 cells, Q-PCR (FIG. 6D); for expression level of Puf-A RNA compared to control shRNA: p53-proficient (p53+/+ HCT116) and p53-deficient (p53−/− HCT116, p53−/− H1299) cells, GAPDH internal control
# Description: FIG. 6A show the nucleotide sequence of human Puf-A gene (SEQ ID NO:1). […] FIG. 6C and FIG. 6D illustrate the Puf-A knockdown efficiency of control shRNA, shPuf-A-1 and shPuf-A-2 in colorectal cancer cells (HCT116) and lung cancer cells (H1299), determined by RT-PCR and Q-PCR analyses.
# The effect of the shRNAs constructs in FIG. 6B on Puf-A expression was evaluated using p53-proficient (p53^+/+ HCT116) and p53-deficient (p53^−/− HCT116 and p53^−/− H1299). The cells were transduced with control shRNA, shPuf-A-1 and shPuf-A-2 lentivirus vectors and Puf-A expression was determined by […] and Q-PCR. […] The knockdown efficiencies of shPuf-A-1 and shPuf-A-2 on Puf-A expression were approximately 90% and 75%, respectively, compare to the control shRNA (FIG. 6D).
# [3] = test system: Puf-A proteins; test: Puf-A protein expression after shPuf-A transduction of cancer cell lines (Western blot); type: cell-based; settings: A549, H460, H1299, CL1-5, HCT116, MB231, U87, LN229, T98 cells
# Description: (§1) FIG. 7A is an assembly of images showing the effect of control shRNA, shPuf-A-1 and Puf-A-2 on Puf-A expression and cleaved form of PARP1, by transducing control shRNA, shPuf-A-1 and Puf-A-2 into the following p53-deficient and p53-proficient cell lines: A549, H460, U87, HCT116, H1299, CL1-5, MB231, LN229 and T98. FIG. 7B is a series of flow cytometry (FACS) images, illustrating the cell-cycle of Puf-A depleted (shPuf-A transduced) p53 proficient (p53 wild type) and p53 deficient (p53 defective) cancer cell lines. FIG. 7C is a series of Western blot images showing the effect shPuf-A-1 transduction on the expression of Puf-A, LC3 (marker for autophagosome), LAMP2 (marker for lysosome) and p62 (an autophagy substrate) in p53^+/+HCT116, p53^−/−HCT116, and p53^−/−H1299 cancer cell lines. FIG. 7D is a Western Blot image illustrating the effect of suppressing p53 and Puf-A in p53-proficient cells (H460). FIG. 7E is a series of immunofluorescence images illustrating the effect of silencing Puf-A, by shPuf-A-1 transduction, on LC3 (green), Lamp1 (red) and DAPI (blue) expression in p53 proficient (p53^+/+) HCT116, P53 deficient (p53^−/−) HCT116 and H1299 cancer cells. […]
# The biological function of Puf-A on cancer cells was assessed, using lung cancer cells (A549, H460, H1299 and CL1-5); colorectal cancer cells (HCT116); breast cancer cells (MB231) and glioblastoma cells (U87, LN229 and T98).
# [4] = test system: LC3-II, LAMP2, p62; test: Autophagy markers after shPuf-A transduction (Western blot); type: cell-based; settings: p53-proficient cells (p53+/+ HCT116)
# Description: as §1, with “cells. FIG. 7F is a series of graphs illustrating reduced proliferation rate of p53^−/− HCT116 and H1299 cells after shPuf-A-1 and shPuf-A-2 transduction compared to control shRNA transduction.” for “cells.”
# [5] = test system: LC3-II, LAMP1; test: Immunofluorescence staining of LC3-II and LAMP1 after shPuf-A-1 transduction; type: cell-based
# Description: (§2) FIG. 7A is an assembly of images showing the effect of control shRNA, shPuf-A-1 and Puf-A-2 on Puf-A expression and cleaved form of PARP1, by transducing control shRNA, shPuf-A-1 and Puf-A-2 into the following p53-deficient and p53-proficient cell lines: A549, H460, U87, HCT116, H1299, CL1-5, MB231, LN229 and T98. FIG. 7B is a series of flow cytometry (FACS) images, illustrating the cell-cycle of Puf-A depleted (shPuf-A transduced) p53 proficient (p53 wild type) and p53 deficient (p53 defective) cancer cell lines. FIG. 7C is a series of Western blot images showing the effect shPuf-A-1 transduction on the expression of Puf-A, LC3 (marker for autophagosome), LAMP2 (marker for lysosome) and p62 (an autophagy substrate) in p53^+/+HCT116, p53^−/−HCT116, and p53^−/−H1299 cancer cell lines. FIG. 7D is a Western Blot image illustrating the effect of suppressing p53 and Puf-A in p53-proficient cells (H460). FIG. 7E is a series of immunofluorescence images illustrating the effect of silencing Puf-A, by shPuf-A-1 transduction, on LC3 (green), Lamp1 (red) and DAPI (blue) expression in p53 proficient (p53^+/+) HCT116, P53 deficient (p53^−/−) HCT116 and H1299 cancer cells. FIG. 7F is a series of graphs illustrating reduced proliferation rate of p53^−/− HCT116 and H1299 cells after shPuf-A-1 and shPuf-A-2 transduction compared to control shRNA transduction.
# [6] = test system: p53-deficient and P53-proficient cancer cells; test: Proliferation rate of cancer cells after shPuf-A transduction; type: cell-based; settings: p53-deficient and P53-proficient cancer cells (FIG. 7F)
# Description: as §2, with “transduction. […]” for “transduction.”
# [7] = test system: p53 and p21; test: p53 and p21 protein/RNA expression in p53 proficient cancer cells after Puf-A suppression; type: cell-based; settings: A549, H460 or HCT116 p53 proficient cells
# Description: FIG. 8A is a series of Western blot, RT-PCR and Q-PCR images, illustrating shPuf-A1 and shPuf-A2 transduction increases the expression of p53 and p21 and reduces transcripts of PUF-A in the following p53-proficient (p53^+/+) cancer cell lines: A549, H460, and HCT116. FIG. 8B is a series of immunostaining images illustrating the expression of p53 (red) and DAPI (blue, internal control) in p53-proficient (p53^+/+) cancer cell lines A549, H460 and HCT116 cells and P53 deficient (p53^−/−) HCT116 cancer cells after control shRNA and shPuf-A-1 transduction. FIG. 8C is a series of bar graphs illustrating the FACS analyzed cell-cycles of Puf-A depleted cancer cells, A549, H460 and HCT116, with different p53 genotypes.
# The effect of Puf-A suppression on the expression level of p53 and p21 protein/RNA in p53 proficient cancer cells was examined, by infecting A549, H460 or HCT116 cancer cells with shPuf-A-1, shPuf-A-2 or control shRNA viral vectors. […] Cell-cycle progression of the same cancer cell lines was analyzed by FACS.
# [8] = test system: Puf-A protein; test: Effect of resveratrol on Puf-A protein expression (Western blot); type: cell-based; settings: 25 and 50 uM
# Description: (§3) FIG. 9A is an assembly of Western blot images illustrating 25 and 50 uM of resveratrol reduced the expression of Puf-a in A549 lung cancer cells, HCT116 colon cancer cells, MB231 breast cancer cells and T98 glioblatoma cells. FIG. 9B is an assembly of graphs illustrating 25 and 50 uM of resveratrol was effective in reducing the proliferation of A549 lung cancer cells, HCT116 colon cancer cells, MB231 breast cancer cells and T98 glioblatoma cells.
# (§4) An in vitro evaluation of the effect of Resveratrol on the expression level of Puf-a protein and cell proliferation in various cancer cells was examined. The following cancer cells were treated with 0, 25 or 50 uM of Resveratrol (commercially available from Sigma, USA): A549 lung cancer cells (p53 proficient), HCT116 colon cancer cells (p53 proficient), MB231 breast cancer cells (p53 deficient) and T98 glioblatoma cells (p53 deficient). The expression of Puf-A protein in these cancer cells was analyzed by western blot and the cell proliferation was measured with a cell proliferation assay performed with xCELLigenece RTCA system (ACEA Biosciences Inc, USA). FIG. 9A is an assembly of Western blot images illustrating 25 and 50 uM of resveratrol reduced the expression of Puf-A in A549 lung cancer cells, HCT116 colon cancer cells, MB231 breast cancer cells and T98 glioblatoma cells. FIG. 9B is an assembly of graphs illustrating 25 and 50 uM of resveratrol reduced the proliferation of A549 lung cancer cells, HCT116 colon cancer cells, MB231 breast cancer cells and T98 glioblatoma cells compare to the control group (no resveratrol).
# [9] = test system: A549 lung cancer cells; test: Cell proliferation assay, xCELLigenece RTCA system, A549; type: cell-based; settings: 25 and 50 uM
# Description: as §3
# as §4, with “FIG. 9B is an assembly of graphs illustrating 25 and 50 uM of resveratrol reduced the proliferation of A549 lung cancer cells, HCT116 colon cancer cells, MB231 breast cancer cells and T98 glioblatoma cells compare to the control group (no resveratrol).” left out
# [10] = test system: HCT116 colon cancer cells; test: Cell proliferation assay, xCELLigenece RTCA system, HCT116; type: cell-based; settings: 25 and 50 uM
# Description: as §3
# as §4, with “FIG. 9B is an assembly of graphs illustrating 25 and 50 uM of resveratrol reduced the proliferation of A549 lung cancer cells, HCT116 colon cancer cells, MB231 breast cancer cells and T98 glioblatoma cells compare to the control group (no resveratrol).” left out
# [11] = test system: MB231 breast cancer cells; test: Cell proliferation assay, xCELLigenece RTCA system, MB231; type: cell-based; settings: 25 and 50 uM
# Description: as §3
# as §4, with “FIG. 9B is an assembly of graphs illustrating 25 and 50 uM of resveratrol reduced the proliferation of A549 lung cancer cells, HCT116 colon cancer cells, MB231 breast cancer cells and T98 glioblatoma cells compare to the control group (no resveratrol).” left out
# [12] = test system: T98 glioblatoma cells; test: Cell proliferation assay, xCELLigenece RTCA system, T98; type: cell-based; settings: 25 and 50 uM
# Description: as §3
# as §4, with “FIG. 9B is an assembly of graphs illustrating 25 and 50 uM of resveratrol reduced the proliferation of A549 lung cancer cells, HCT116 colon cancer cells, MB231 breast cancer cells and T98 glioblatoma cells compare to the control group (no resveratrol).” left out
# [13] = test system: adenoma-bearing LSL-Kras^G12D/p53^flox mice; test: In vivo evaluation of Puf-A suppression in tumourigenesis (intranasal lentiviral shRNA); settings: lentiviral vector intranasally twice a week for two weeks; sacrificed 6 weeks after Kras^G12D activation and p53 deletion
# Description: FIG. 5A schematically illustrates the in vivo study design of Puf-A shRNA delivery to knock down Puf-A. FIG. 5B is an assembly of microscopic images illustrating the number of tumor foci in mice administered with of control shRNA or Puf-A shRNA. FIG. 5C is a series of bar graphs illustrating the counted numbers of tumor foci (>250 μm) in mice with adenocarcinoma (left bar graph) and adenoma (right bar graph), after the administration of control or Puf-A-2 shRNA.
# An in vivo evaluation of Puf-A suppression in tumourigenesis was performed using LSL-Kras^G12D1p53^flox mice.
# FIG. 5A schematically illustrates the study design. LSL-Kras^G12D/p53^flox mice developed adenoma after 2 weeks of Kras^G12D activation and p53 deletion. Lentiviral vector, expressing shPuf-A-2 (a Puf-A shRNA) or control shRNA, was intranasally delivered to adenoma-bearing LSL-Kras^G12D/p53^flox mice twice a week for two weeks. The mice were sacrificed 6 weeks after Kras^G12D activation and p53 deletion.
Molecule,knockdown efficiency on Puf-A expression compared to control shRNA [2],expression level of Puf-A RNA compared to control shRNA [2],expression level of Puf-A proteins compared to control shRNA [3],level of LC3-II expression [4],proliferation rate compared to control shRNA virus [6],expression level of p21 protein or RNA compared to control shRNA [7],expression level of p53 protein or RNA compared to control shRNA [7],further results
COc1cccc(-c2cc(=O)c3ccccc3o2)c1N [PD98059],–,–,–,–,–,–,–,expression levels of Puf-A [1]: reduced
"shPuf-A-1: novel short hairpin RNA targeting Puf-A, encoded by SEQ ID NO:2, delivered by lentivirus vector (DNA CCGGGCCTAGCATAGTAAATGACAACTCGAGTTGTCATTTACTATGCTAGGCTTTTTTG)",approximately 90%,significantly reduced,significantly reduced,slight increase,reduced,significantly increased,significantly increased,expression and co-localization of LC3-II and LAMP1 ([5]; p53-deficient cancer cells): increase expression and co-localization; LAMP1 around the nuclei ([5]; p53-proficient cancer cells): slight increase
Oc1ccc(C=Cc2cc(O)cc(O)c2)cc1 [resveratrol],–,–,–,–,–,–,–,expression of Puf-A ([8]; A549 lung cancer cells (p53 proficient)): reduced; expression of Puf-A ([8]; HCT116 colon cancer cells (p53 proficient)): reduced; expression of Puf-A ([8]; MB231 breast cancer cells (p53 deficient)): reduced; expression of Puf-A ([8]; T98 glioblatoma cells (p53 deficient)): reduced; proliferation compared to control group (no resveratrol) [9]: reduced; proliferation compared to control group (no resveratrol) [10]: reduced; proliferation compared to control group (no resveratrol) [11]: reduced; proliferation compared to control group (no resveratrol) [12]: reduced
"shPuf-A-2: novel short hairpin RNA targeting Puf-A, encoded by SEQ ID NO:3, delivered by lentivirus vector (DNA CCGGCGTGTGATCCAGTGTTACATTCTCGAGAATGTAACACTGGATCACACGTTTTTG)",~75%,significantly reduced,significantly reduced,slight increase,reduced,significantly increased,significantly increased,reduction of number of adenocarcinoma focus (>250 μm) vs control shRNA vector [13]: 15.4 fold; reduction of number of adenoma focus (>250 μm) vs control shRNA vector [13]: 2.6 fold
